Laboratory results: patent publication US7378234B2, “Method for isolating hepatitis C virus peptides” (Intercell AG, priority 2002, dated 2008)
Where two headings read alike, the source gives them in different places.

What was measured:
PBMC (in vitro primed) = test: IFN-gamma ELIspot after 2 rounds of in vitro priming of human PBMC; format: cell-based; settings: donor H10
Procedure: Human PBMCs are repeatedly stimulated with antigen (peptide or peptide mixture) in the presence of IL-2 and IL-7. This leads to the selective oligoclonal expansion of antigen-specific T cells. Responses against individual epitopes can be assessed for instance by IFN-γ ELIspot assays. Freshly thawed PBMCs were cultured in 6 well plates (2-4×10^6/mL viable cells) in RPMI-1640 (GibcoBRL), 1% non-essential amino acids (GibcoBRL, cat# 11140-035), 1% Penicillin (10,000 U/ml)-Streptomycin (10,000 μg/ml) (GibcoBRL, cat#15140-122), 1% L-Glutamine (GibcoBRL), 0.1% beta-mercapto-ethanol (GibcoBRL), 1% Na-pyruvate (GibcoBRL), plus 10% Human AB serum (PAA, Linz, Austria). Peptides (10 μM each) were added to each well. rhIL-7 (Strathmann Biotech) was added at 10 ng/mL final concentration. 20-30 U/mL rhIL-2 (Strathmann Biotech) were added on day 4. On day 10, all cells were removed from plates, washed once in media (as above), and counted. For the next cycle of in vitro priming, viable cells were co-cultivated with autologous gamma irradiated (1.2 gray/min, for 20 minutes) PBMC as feeders (plated at 100,000 per well) and peptides, rh-IL-2 as described above. ELIspot was done as described above, except that 200,000 responder cells (pre-stimulated for 2 rounds of in vitro priming) were used together with 60,000 autologous irradiated […] cells.

HLA class I [1] = test: HLA class I coverage of hotspots and epitopes, compiled from the Examples and Tables of this specification (epitope capture, HLA-transgenic animals, in vitro stimulation of human mononuclear cells); settings: source data: Examples and Tables within this specification
Excerpt: Thus, as even individual T-cell epitopes are not obvious within the sequence of a polypeptide, the same is even more the case for hotspots. Several radically different experimental approaches are combined according to the present invention for T-cell epitope identification, including epitope capture, HLA-transgenic animals and in vitro stimulation of human mononuclear cells. All three approaches are systematically applied on overlapping peptides spanning the antigen of interest, enabling comprehensive identification of epitopes (refer to CMV Epitope Capture patent). Upon such a comprehensive analysis, not limited to a particular HLA allele, but rather unravelling all possibly targeted epitopes within a population, epitope hotspots may become apparent. Within an antigen, only few if any sequences show characteristics of hotspots. Thus the identification of a hotspot is always a surprising event.

HLA class II = HLA class II coverage of hotspots and epitopes, compiled from the Examples and Tables of this specification (epitope capture, HLA-transgenic animals, in vitro stimulation of human mononuclear cells); settings: source data: Examples and Tables within this specification
[2] = tested on: PBMC from HCV RNA-negativ therapy responders or subjects spontaneously recovered; test: IFN-gamma ELIspot with human PBMC from HCV therapy responders or spontaneously recovered subjects; settings: directly ex vivo, donor H38; >8 significant
HLA class I [3] = settings: source data: literature reference; cited from earlier work

Question: For DYPYRLWHYPCTVNYTIFKI [Peptide 1800], which “peptide-specific IFN-gamma secreting T-cells, donor H10, after 2 rounds of in vitro stimulation” value (PBMC (in vitro primed)) is on record?
Answer: 95 T-cells/10^6 PBMC

Question: And the “HLA-class I coverage” value (HLA class I [1])?
Answer: Cw7,A24,A11

Question: What about the “HLA-class II coverage” value (HLA class II) of the same substance?
Answer: DR7

Question: What about the “peptide-specific IFN-gamma secreting T-cells, donor H38” value [2] of the same substance?
Answer: 35 T-cells/10^6 PBMC

Question: For 1754 (DYPYRLWHY) [compound 1754], which “HLA-class I coverage” value (HLA class I [3]) is on record?
Answer: Cw7
